Data as given in article PMC12090182, “Repurposing of the RIPK1-Selective Benzo[1,4]oxazepin-4-one Scaffold for the Development of a Type III LIMK1/2 Inhibitor” (ACS Chemical Biology, 2025).

Tests used:
Assay in all cases: DSF selectivity screening
Format in all cases: binding
Settings in all cases: 10 μM compound
[1] = molecular target: AURKBA (Homo sapiens, UniProt Q96GD4)
Experimental: (§1) The assay was performed as previously described.[29],[35] Briefly, recombinant protein kinase domains at a concentration of 2 μM were mixed with a 10 μM compound in a buffer containing 20 mM HEPES, pH 7.5, and 500 mM NaCl. SYPRO Orange (5000×, Invitrogen) was added as a fluorescence probe (1 μL per mL). Subsequently, temperature-dependent protein unfolding profiles were measured using a QuantStudio 5 real-time PCR machine (Thermo Fisher). Excitation and emission filters were set to 465 and 590 nm, respectively. The temperature was raised with a step rate of 3 °C per minute. Data points were analyzed with internal software (Thermal Shift Software version 1.4, Thermo Fisher) using the Boltzmann equation to determine the inflection point of the transition curve (Table S4).

[2] = molecular target: BMPR2A (Homo sapiens, UniProt Q13873)
Experimental: as §1

[3] = molecular target: BMXA (Homo sapiens, UniProt P51813)
Experimental: as §1

[4] = molecular target: BRAFA (Homo sapiens, UniProt P15056)
Experimental: as §1

[5] = molecular target: CAMK2DA (Homo sapiens, UniProt Q13557)
Experimental: as §1

[6] = molecular target: CAMK4A (Homo sapiens, UniProt Q16566)
Experimental: as §1

[7] = molecular target: CAMKK2B (Homo sapiens, UniProt Q96RR4)
Experimental: as §1

[8] = molecular target: CASKA (Homo sapiens, UniProt O14936)
Experimental: as §1

[9] = molecular target: CDK2A (Homo sapiens, UniProt P24941)
Experimental: as §1

[10] = molecular target: DCAMKL1A (Homo sapiens, UniProt O15075)
Experimental: as §1

[11] = molecular target: DYRK2A (Homo sapiens, UniProt Q92630)
Experimental: as §1

[12] = molecular target: EPHA2A (Homo sapiens, UniProt P29317)
Experimental: as §1

[13] = molecular target: EPHA4A (Homo sapiens, UniProt P54764)
Experimental: as §1

[14] = molecular target: EPHA7A (Homo sapiens, UniProt Q15375)
Experimental: as §1

[15] = molecular target: EPHB3A (Homo sapiens, UniProt P54753)
Experimental: as §1

[16] = molecular target: FLT1A (Homo sapiens, UniProt P17948)
Experimental: as §1

[17] = molecular target: GAKA (Homo sapiens, UniProt O14976)
Experimental: as §1

[18] = molecular target: MAP2K1A (Homo sapiens, UniProt Q02750)
Experimental: as §1

[19] = molecular target: MAP2K4A (Homo sapiens, UniProt P45985)
Experimental: as §1

[20] = molecular target: MAP2K7 (Homo sapiens, UniProt O14733)
Experimental: as §1

[21] = molecular target: MAPK10A (Homo sapiens, UniProt P53779)
Experimental: as §1

[22] = molecular target: MAPK14A (Homo sapiens, UniProt Q16539)
Experimental: as §1

[23] = molecular target: MARK3A (Homo sapiens, UniProt P27448)
Experimental: as §1

[24] = molecular target: MERTKA (Homo sapiens, UniProt Q12866)
Experimental: as §1

[25] = molecular target: MST4A (Homo sapiens, UniProt Q9P289)
Experimental: as §1

[26] = molecular target: NEK1A (Homo sapiens, UniProt Q96PY6)
Experimental: as §1

[27] = molecular target: NEK7A (Homo sapiens, UniProt Q8TDX7)
Experimental: as §1

[28] = molecular target: NQO2A (Homo sapiens, UniProt P16083)
Experimental: as §1

[29] = molecular target: PCTK1A (Homo sapiens, UniProt Q00536)
Experimental: as §1

[30] = molecular target: PHKG2A (Homo sapiens, UniProt P15735)
Experimental: as §1

[31] = molecular target: PIM1A (Homo sapiens, UniProt P11309)
Experimental: as §1

[32] = molecular target: PIM3A (Homo sapiens, UniProt Q86V86)
Experimental: as §1

[33] = tested on: RPS6KA5A
Experimental: as §1

[34] = molecular target: STK17BA (Homo sapiens, UniProt O94768)
Experimental: as §1

[35] = molecular target: STK38LA (Homo sapiens, UniProt Q9Y2H1)
Experimental: as §1

[36] = molecular target: STK39A (Homo sapiens, UniProt Q9UEW8)
Experimental: as §1

[37] = tested on: TAF1A
Experimental: as §1

[38] = molecular target: TIF1A (Homo sapiens, UniProt O15164)
Experimental: as §1

[39] = molecular target: TTKA (Homo sapiens, UniProt P33981)
Experimental: as §1

[40] = molecular target: ULK1A (Homo sapiens, UniProt O75385)
Experimental: as §1

[41] = molecular target: WNK1A (Homo sapiens, UniProt Q9H4A3)
Experimental: as §1

DYRK2A, sequence (Q92630 whole entry): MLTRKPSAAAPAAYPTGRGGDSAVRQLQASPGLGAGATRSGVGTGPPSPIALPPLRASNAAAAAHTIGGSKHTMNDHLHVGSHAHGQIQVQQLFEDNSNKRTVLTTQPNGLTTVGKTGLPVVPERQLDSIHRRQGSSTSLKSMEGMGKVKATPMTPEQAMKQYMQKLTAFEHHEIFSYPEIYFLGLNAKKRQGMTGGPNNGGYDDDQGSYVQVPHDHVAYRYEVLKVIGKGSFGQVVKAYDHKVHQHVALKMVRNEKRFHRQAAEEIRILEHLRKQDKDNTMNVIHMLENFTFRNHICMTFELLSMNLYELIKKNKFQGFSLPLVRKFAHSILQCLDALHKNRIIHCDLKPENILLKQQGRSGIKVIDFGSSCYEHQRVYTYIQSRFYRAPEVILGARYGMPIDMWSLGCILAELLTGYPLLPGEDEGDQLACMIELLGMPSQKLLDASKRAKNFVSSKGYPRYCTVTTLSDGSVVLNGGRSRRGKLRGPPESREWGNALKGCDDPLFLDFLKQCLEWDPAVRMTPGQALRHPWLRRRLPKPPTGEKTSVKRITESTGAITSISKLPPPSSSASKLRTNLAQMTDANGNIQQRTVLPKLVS
MARK3A, sequence (P27448 48-370): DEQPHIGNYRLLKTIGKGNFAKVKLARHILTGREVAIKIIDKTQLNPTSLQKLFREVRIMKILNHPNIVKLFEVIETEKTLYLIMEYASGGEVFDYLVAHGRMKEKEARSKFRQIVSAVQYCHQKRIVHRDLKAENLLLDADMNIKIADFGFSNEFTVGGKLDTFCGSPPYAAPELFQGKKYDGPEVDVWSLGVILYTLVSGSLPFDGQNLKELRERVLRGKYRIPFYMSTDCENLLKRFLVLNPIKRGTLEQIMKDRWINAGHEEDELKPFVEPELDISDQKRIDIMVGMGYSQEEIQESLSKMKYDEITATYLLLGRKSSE
TIF1A, sequence (O15164 whole entry): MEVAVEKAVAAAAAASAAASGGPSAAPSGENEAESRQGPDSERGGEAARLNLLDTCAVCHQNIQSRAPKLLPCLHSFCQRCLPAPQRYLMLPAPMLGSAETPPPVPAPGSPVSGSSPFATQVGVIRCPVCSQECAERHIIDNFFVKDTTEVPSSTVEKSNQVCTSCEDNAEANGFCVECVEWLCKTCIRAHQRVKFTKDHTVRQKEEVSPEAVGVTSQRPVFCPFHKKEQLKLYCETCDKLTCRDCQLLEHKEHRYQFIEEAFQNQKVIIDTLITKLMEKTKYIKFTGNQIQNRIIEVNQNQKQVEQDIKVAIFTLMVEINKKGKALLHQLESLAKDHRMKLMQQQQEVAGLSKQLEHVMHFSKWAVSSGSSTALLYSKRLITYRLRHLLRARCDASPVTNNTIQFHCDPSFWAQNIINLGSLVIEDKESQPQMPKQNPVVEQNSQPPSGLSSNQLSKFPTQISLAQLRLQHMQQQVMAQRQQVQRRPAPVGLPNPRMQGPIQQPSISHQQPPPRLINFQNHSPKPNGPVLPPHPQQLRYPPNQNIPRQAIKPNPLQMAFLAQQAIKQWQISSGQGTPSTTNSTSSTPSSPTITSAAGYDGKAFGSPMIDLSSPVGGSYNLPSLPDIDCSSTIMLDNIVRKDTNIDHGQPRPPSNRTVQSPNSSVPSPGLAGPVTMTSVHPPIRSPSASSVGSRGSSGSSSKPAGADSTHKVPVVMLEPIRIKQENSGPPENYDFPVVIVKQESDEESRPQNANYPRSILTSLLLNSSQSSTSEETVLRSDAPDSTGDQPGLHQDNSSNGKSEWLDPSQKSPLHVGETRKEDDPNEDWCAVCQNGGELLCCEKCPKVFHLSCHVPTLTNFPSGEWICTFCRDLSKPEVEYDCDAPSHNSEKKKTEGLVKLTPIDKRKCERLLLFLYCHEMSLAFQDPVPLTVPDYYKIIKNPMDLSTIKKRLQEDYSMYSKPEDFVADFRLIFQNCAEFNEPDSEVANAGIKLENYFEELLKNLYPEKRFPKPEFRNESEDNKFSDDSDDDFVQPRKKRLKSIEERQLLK
PCTK1A, sequence (Q00536 163-478): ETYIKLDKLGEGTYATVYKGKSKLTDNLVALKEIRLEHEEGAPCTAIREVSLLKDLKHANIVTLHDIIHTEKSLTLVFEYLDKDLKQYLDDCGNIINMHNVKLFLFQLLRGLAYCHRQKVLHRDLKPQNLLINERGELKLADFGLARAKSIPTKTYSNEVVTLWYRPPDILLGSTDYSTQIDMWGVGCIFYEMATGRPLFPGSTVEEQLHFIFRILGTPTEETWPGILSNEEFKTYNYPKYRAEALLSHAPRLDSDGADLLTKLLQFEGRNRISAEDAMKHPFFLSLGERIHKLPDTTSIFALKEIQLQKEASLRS
NEK7A, sequence (Q8TDX7 34-299): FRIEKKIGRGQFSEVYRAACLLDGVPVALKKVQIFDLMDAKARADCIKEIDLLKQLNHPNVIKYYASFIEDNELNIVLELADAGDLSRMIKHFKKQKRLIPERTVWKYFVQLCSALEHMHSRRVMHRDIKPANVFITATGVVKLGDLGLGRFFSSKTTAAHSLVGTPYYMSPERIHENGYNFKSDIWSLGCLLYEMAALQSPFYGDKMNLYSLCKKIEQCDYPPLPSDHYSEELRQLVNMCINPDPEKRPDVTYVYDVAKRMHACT
MAP2K1A, sequence (Q02750 68-361): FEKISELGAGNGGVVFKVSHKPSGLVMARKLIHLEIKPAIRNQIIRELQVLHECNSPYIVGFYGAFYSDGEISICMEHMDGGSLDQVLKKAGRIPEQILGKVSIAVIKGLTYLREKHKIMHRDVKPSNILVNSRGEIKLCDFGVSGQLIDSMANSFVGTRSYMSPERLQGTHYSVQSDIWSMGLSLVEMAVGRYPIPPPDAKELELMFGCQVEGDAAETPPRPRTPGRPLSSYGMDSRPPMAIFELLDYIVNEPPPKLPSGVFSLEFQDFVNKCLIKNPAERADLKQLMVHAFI
CAMKK2B, sequence (Q96RR4 161-449): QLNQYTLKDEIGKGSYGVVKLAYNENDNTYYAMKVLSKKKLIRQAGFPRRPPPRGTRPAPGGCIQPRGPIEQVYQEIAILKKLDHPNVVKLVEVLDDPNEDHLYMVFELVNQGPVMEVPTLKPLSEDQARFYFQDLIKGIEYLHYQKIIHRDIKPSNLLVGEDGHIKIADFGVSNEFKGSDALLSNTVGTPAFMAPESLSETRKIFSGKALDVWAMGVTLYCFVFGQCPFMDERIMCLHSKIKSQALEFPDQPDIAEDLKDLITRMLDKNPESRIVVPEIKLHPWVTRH
WNK1A, sequence (Q9H4A3 194-483): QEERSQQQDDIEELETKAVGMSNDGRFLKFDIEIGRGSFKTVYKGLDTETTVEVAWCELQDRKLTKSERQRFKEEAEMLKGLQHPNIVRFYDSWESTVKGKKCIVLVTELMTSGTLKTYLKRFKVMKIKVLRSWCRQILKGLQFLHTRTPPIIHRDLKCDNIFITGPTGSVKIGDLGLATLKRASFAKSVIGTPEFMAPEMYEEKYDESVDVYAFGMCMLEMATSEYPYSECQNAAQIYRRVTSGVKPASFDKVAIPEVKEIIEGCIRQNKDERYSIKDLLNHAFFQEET
CASKA, sequence (O14936 12-276): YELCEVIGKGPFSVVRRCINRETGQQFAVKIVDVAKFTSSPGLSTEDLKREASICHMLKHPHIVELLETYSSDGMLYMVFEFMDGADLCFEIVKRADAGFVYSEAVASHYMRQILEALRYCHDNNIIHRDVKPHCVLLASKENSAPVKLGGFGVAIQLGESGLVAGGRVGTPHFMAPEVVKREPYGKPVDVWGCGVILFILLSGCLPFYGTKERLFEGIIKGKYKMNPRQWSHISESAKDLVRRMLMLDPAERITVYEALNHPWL
BMXA, sequence (P51813 411-675): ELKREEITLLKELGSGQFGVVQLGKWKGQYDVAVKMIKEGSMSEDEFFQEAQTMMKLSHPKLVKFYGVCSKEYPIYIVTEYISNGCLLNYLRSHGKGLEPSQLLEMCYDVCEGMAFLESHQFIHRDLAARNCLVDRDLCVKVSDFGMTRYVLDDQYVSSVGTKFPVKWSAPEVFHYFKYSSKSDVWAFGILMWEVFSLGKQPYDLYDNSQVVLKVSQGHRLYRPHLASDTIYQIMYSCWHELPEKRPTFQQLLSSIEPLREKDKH
EPHB3A, sequence (P54753 616-910): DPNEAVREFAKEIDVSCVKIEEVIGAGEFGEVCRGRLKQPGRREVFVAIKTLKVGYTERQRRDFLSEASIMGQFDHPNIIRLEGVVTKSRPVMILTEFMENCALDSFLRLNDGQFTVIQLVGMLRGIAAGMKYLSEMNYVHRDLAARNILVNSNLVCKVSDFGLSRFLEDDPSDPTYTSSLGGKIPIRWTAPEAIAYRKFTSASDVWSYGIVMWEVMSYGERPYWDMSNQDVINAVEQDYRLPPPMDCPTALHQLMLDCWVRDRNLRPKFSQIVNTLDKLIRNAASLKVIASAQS
MAP2K4A, sequence (P45985 102-367): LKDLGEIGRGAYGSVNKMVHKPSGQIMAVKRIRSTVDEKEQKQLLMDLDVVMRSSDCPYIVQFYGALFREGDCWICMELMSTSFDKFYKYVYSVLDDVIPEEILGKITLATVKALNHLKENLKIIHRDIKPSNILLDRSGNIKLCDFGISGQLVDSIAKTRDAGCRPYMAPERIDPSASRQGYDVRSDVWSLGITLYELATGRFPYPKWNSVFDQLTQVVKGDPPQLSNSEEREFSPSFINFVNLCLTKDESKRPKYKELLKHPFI
EPHA7A, sequence (Q15375 590-899): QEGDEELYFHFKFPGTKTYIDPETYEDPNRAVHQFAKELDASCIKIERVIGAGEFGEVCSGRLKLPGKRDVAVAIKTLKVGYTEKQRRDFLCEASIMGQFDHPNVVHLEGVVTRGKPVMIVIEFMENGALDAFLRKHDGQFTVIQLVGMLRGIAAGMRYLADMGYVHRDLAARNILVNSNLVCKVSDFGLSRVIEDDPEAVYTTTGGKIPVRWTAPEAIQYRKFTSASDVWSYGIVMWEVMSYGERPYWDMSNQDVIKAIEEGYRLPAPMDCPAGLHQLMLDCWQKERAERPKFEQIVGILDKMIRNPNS

## CN1C(=O)[C@@H](N2CCc3c(nn(Cc4ccccc4)c3C(N)=O)C2=O)COc2cc(Cl)ccc21 [Compound 10, (S)-2-benzyl-6-(8-chloro-5-methyl-4-oxo-2,3,4,5-tetrahydrobenzo[b][1,4]oxazepin-3-yl)-7-oxo-4,5,6,7-tetrahydro-2H-pyrazolo[3,4-c]pyridine-3-carboxamide]
[1]
  ΔTm at 10 µM: 0.2 °C
[2]
  ΔTm at 10 µM: 0.1 °C
[3]
  ΔTm at 10 µM: 0.1 °C
[4]
  ΔTm at 10 µM: 0.1 °C
[5]
  ΔTm at 10 µM: 0.4 °C
[6]
  ΔTm at 10 µM: 0.1 °C
[7]
  ΔTm at 10 µM: -0.2 °C
[8]
  ΔTm at 10 µM: 0.1 °C
[9]
  ΔTm at 10 µM: 0 °C
[10]
  ΔTm at 10 µM: 0 °C
[11]
  ΔTm at 10 µM: 0.1 °C
[12]
  ΔTm at 10 µM: 0 °C
[13]
  ΔTm at 10 µM: 0.2 °C
[14]
  ΔTm at 10 µM: -0.1 °C
[15]
  ΔTm at 10 µM: 0.2 °C
[16]
  ΔTm at 10 µM: 0.2 °C
[17]
  ΔTm at 10 µM: 0 °C
[18]
  ΔTm at 10 µM: 0.1 °C
[19]
  ΔTm at 10 µM: 0.1 °C
[20]
  ΔTm at 10 µM: 1.1 °C
[21]
  ΔTm at 10 µM: 0 °C
[22]
  ΔTm at 10 µM: 0.1 °C
[23]
  ΔTm at 10 µM: 0.3 °C
[24]
  ΔTm at 10 µM: 0.1 °C
[25]
  ΔTm at 10 µM: -0.1 °C
[26]
  ΔTm at 10 µM: 0.1 °C
[27]
  ΔTm at 10 µM: 0 °C
[28]
  ΔTm at 10 µM: 0.6 °C
[29]
  ΔTm at 10 µM: 0.2 °C
[30]
  ΔTm at 10 µM: 0 °C
[31]
  ΔTm at 10 µM: -0.9 °C
[32]
  ΔTm at 10 µM: 0.5 °C
[33]
  ΔTM: -0.1 K
[34]
  ΔTm at 10 µM: 0.1 °C
[35]
  ΔTm at 10 µM: 0 °C
[36]
  ΔTm at 10 µM: 0.1 °C
[37]
  ΔTM: 0.3 K
[38]
  ΔTm at 10 µM: 0.2 °C
[39]
  ΔTm at 10 µM: -0.3 °C
[40]
  ΔTm at 10 µM: 0.1 °C
[41]
  ΔTm at 10 µM: 0.4 °C
